Literature values, collected in patent US10213389B2 (priority 2005, dated 2019).

Substance: 1,4:3,6-dianhydro-D-glucitol dinitrate [Isosorbide dinitrate]
- solubility in acetone, chloroform, alcohol and ether (acetone, chloroform, alcohol, ether): freely soluble
- solubility in water (water, described as sparingly soluble): 1.0 g/900 ml
